# Experimental data: patent publication US8173428B2, “LNA oligonucleotides and the treatment of cancer” (Santaris Pharma A/S, priority 2004, dated 2012)
# Where two headings read alike, the source gives them in different places. Oligonucleotides are written 5' to 3', each unit as a sugar letter and its base; * is a phosphorothioate linkage, no mark a phosphodiester; rarer units and linkages stand in square brackets, end groups in braces. Plain capitals give the bases only. l = locked nucleic acid (LNA); [5mC] = 5-methylcytosine; d = 2'-deoxy (DNA)
# Columns and labels:
# 15PC3 cells [1] = test: Caspase 3/7 activity (apoptosis) in transfected 15PC3 cells; type: cell-based, human; conditions: for Apoptosis At 5 nM, 24 hours: 24 hours (Table 7, FIG. 3); for Max Apoptosis: 25 nM, 48 hours (Table 7)
# Method: (§1) Culturing of cells: 15PC3 was cultured in DMEM (Sigma) containing 10% fetal bovine serum, Glutamax I and gentamicin at 37° C., 95% humidity and 5% CO2. The cervical carcinoma cell line HeLa were cultured in MEM (Sigma) containing 10% fetal bovine serum, Glutamax I and gentamicin at 37° C., 95% humidity and 5% CO2. When reaching 60-70% confluency, the cells were transfected using Lipofectamine 2000 (5 μg/ml).
# 15PC3 cells were seeded to a density of 10000 cells per well in white 96-well plates (Nunc 136101) in DMEM the day prior to transfection. The next day cells were washed once in prewarmed OptiMEM followed by addition of 72 μl OptiMEM containing 5 μg/ml Lipofectamine-2000 (In vitrogen). Cells were incubated for 7 min before adding 18 μl oligonucleotides diluted in OptiMEM. The final oligonucleotide concentration ranged from 0.2 nM to 100 nM. After 4 hours of treatment, cells were washed in OptiMEM and 100 μl DMEM containing serum was added. Following oligonucleotide treatment, cells were allowed to recover for the period indicated before they were removed from the CO2 incubator and equilibrated to room temperature for 15 min. 100 μl of the highly sensitive Caspase 3/7-Glo™ Reagent (Promega) was added directly to the cells, and the plates were incubated for 20 min. Luminescence (luciferase activity) was recorded in a Luminoskan Ascent instrument (Thermo Labsystems). The luciferase activity is measured as Relative Light Units per seconds (RLU/s). The data was analysed using the Ascent software 2.4.2. Graphs of fold induction relative to mock were generated using MS Excel.
# Staurosporine, Camptothecine or Taxol induced cells served as positive controls (see FIGS. 3, 6A and Table 4 plus Example 21).
# human Survivin RNA = test: Survivin mRNA knockdown in transfected 15PC3 cells by real-time PCR; type: cell-based
# Method: Cell culturing and transfections: 15PC3 cells were seeded in 12-well plates and grown for two days at 37° C. (5% CO2) in DMEM supplemented with 10% FBS, Glutamax I and Gentamicin. When the cells were 60-70% confluent, they were transfected in duplicates with different concentrations of oligonucleotides (0.2-25 nM) using Lipofectamine 2000 (10 μg/ml). Transfections were carried out essentially as described by Dean et al. (1994, JBC 269:16416-16424). In short, cells were incubated for 10 min. with Lipofectamine in OptiMEM followed by addition of oligonucleotide to a total volume of 0.5 ml transfection mix per well. […] Cells were then harvested for protein and RNA analysis.
# Total RNA was isolated using RNeasy mini kit (Qiagen). Cells were washed with PBS, and Cell Lysis Buffer (RTL, Qiagen) supplemented with 1% mercaptoethanol was added directly to the wells. After a few minutes, the samples were processed according to manufacturer's instructions.
# First strand synthesis was performed using OmniScript Reverse Transcriptase kit according to the manufacturer's instructions (Qiagen). For each sample, 0.5 μg total RNA was adjusted to 12 μl and mixed with 0.2 μl poly (dT)12-18 (0.5 μg/μl) (Life Technologies), 2 μl dNTP mix (5 mM each), 2 μl 10× RT buffer, 0.5 μl RNAguard™ RNase Inhibitor (33 units/ml, Amersham) and 1 μl OmniScript Reverse Transcriptase followed by incubation at 37° C. for 60 min. and heat inactivation at 93° C. for 5 min.
# To determine the relative Survivin mRNA level in oligonucleotide treated and untreated cells, the generated cDNA was used in quantitative PCR analysis using an iCycler from BioRad. The cDNA was diluted 5-fold and 8 μl was mixed with 52 μl Taqman probe master mix containing 30 μl Platinum Quantitative PCR SuperMix UDG 2×PCR master mix (Invitrogen), 3 μl 20× Taqman probe and primer mix (forward primer: 5′[…] (SEQ ID NO:29), final 0.9 μM. Reverse primer: 5′[…] (SEQ ID NO:30), final 0.6 μM and taqman probe: FAM-[…]-TAMRA (SEQ ID NO:31), final 0.1 μM) and 19 μl H2O. The 60 μl were dispersed in two wells (96 well plates) with […] in each well. For human Bcl-2 the PCR primers were: […]
# The primers and probe were obtained from […] (France). To normalize any variance in sample preparation, the endogenous GAPDH mRNA was quantified using a pre-developed Taqman assay reagent from Applied Biosystems (4310884E) according to manufacturer's Instructions. Two-fold dilutions of cDNA, synthesised from untreated 15PC3 cells (expressing both Survivin and GAPDH), was used to prepare standard curves for the assays. The PCR program was as follows: 50° C. for 2 min., 95° C. for 10 min. followed by 40 cycles of 95° C. 15 sec., 60° C. 1 min. Relative quantities of Survivin mRNA were determined from the calculated threshold cycle using the iCycler IQ Real Time Detection System software.
# In accordance with the present invention, a series of oligonucleotides were designed to target different regions of the human Survivin RNA, using published sequences (GenBank accession number NM_001168).
# LNA oligonucleotides were evaluated for their potential to knockdown Survivin mRNA in 15PC3 cells. The data are presented as percentage down-regulation relative to mock transfected cells. Transcript steady state was monitored by Real-time PCR and normalised to the GAPDH transcript steady state, see Table 3. Note that all LNA C are 5-methyl-Cytosine.
# 15PC3 cells [2] = test: MTS assay of proliferating viable cells; type: cell-based, human
# Method: as §1
# Cells were seeded to a density of 10000 cells per well in clear 96 well plate (Scientific Orange no. 1472030100) in DMEM the day prior to transfection. The next day cells were washed once in prewarmed OptiMEM followed by addition of 72 μl OptiMEM containing 5 μg/ml Lipofectamine 2000 (Invitrogen). Cells were incubated for 7 min before adding 18 μl oligonucleotides diluted in OptiMEM. […] After 4 hours of treatment, cells were washed in OptiMEM and 100 μl serum containing DMEM was added. Following oligonucleotide treatment cells were allowed to recover for the period indicated, viable cells were measured by adding 20 μl of the tetrazolium compound [3-(4,5-[…])-5-(3-carboxymethoxyphenyl)-2-(4-sulfophenyl)-2H-tetrazolium, inner salt; MTS] and an electron coupling reagent (phenazine ethosulfate, PES; CellTiter 96® AQueous One Solution Cell Proliferation Assay, Promega). Viable cells were measured at 490 nm and 650 nm in a Powerwave (Biotek Instruments).
# The inhibition of growth rate ΔOD (490-650 nm)/h was plotted against the oligonucleotide concentration relative to mock, which was set to 100%. The maximum inhibition of proliferation observed in the MTS assay was 70% (minimum 30%). (Table 5 and FIG. 5)
# complementary RNA = test: Measurement of melting temperature (Tm) of the duplex; type: binding; conditions: 3 μM, 10 mM sodium phosphate/100 mM NaCl/0.1 nM EDTA, pH 7.0
# Method: Measurement of melting temperature (Tm) of the compounds: A 3 μM solution of SEQ ID NO. 2 in 10 mM sodium phosphate/100 mM NaCl/[…], pH 7.0 was mixed with its complement DNA/RNA 3 μM in 10 mM sodium phosphate/100 mM NaCl/[…], pH 7.0 at 90° C. for a minute and allowed to cool to room temperature. The Tm of the duplex was then determined by increasing the temperature 1° C./min. from 25 to 95° C. The Tm of SEQ ID NO.
# HeLa cells = test: Annexin V-FITC/PI flow cytometry analysis; type: cell-based, human; conditions: 5 nM or 25 nM
# Method: as §1
# 0.4×10^6 HeLa cells were seeded in T25 flasks one day prior to transfection. On the day of transfection, the cells were washed once in 37° C. OptiMEM followed by addition of 2.8 ml OptiMEM containing 5 μg/ml Lipofectamine-2000 (In vitrogen). Cells were incubated for 7 min before adding 700 μl oligonucleotides diluted in OptiMEM to a final concentration of 5 nM or 25 nM, Mock transfected cells served as control. After 4 hours of treatment cells were washed in OptiMEM and 3 ml culture medium was added. Following oligonucleotide treatment cells were allowed to recover for 48 hours before they were harvested by scraping and washed twice in PBS. 0.2×10^6 cells were incubated with 5 μl Annexin V-FITC and 10 μl propidium iodide (PI-10 mg/ml) and incubated for 15 min at room temperature in the dark. […] Moreover, TRAIL (Apo2L) induced HeLA cells (0.5 μg/ml) were used as positive control. (See FIG. 4)
# 15PC3 cells [3] = test: Cell cycle analysis by propidium iodide staining and FACS; type: cell-based, human; conditions: 10 nM, 24 hours, 15PC3 cells
# Method: Cell culturing: Human prostate cancer 15PC3 cells (kindly provided by Dr. F Baas, Neurozintuigen Laboratory, AMC, The Netherlands) were seeded to a density of 8×10E5 cells in T75-flasks and grown for two days at 37° C. and 5% CO2 in DMEM supplemented with 10% FBS, Glutamax and Gentamicin. Two days following seeding cells were transfected with 2-10 nM SEQ ID NO. 2 using Lipofectamine at a final conc. of 7.5 μg/ml. Transfections were carried out as described by Dean et al. (1994, JBC 269 p. 16416 16424). In short cells were incubated with Lipofectamine diluted in OptiMEM for 7-10 min followed by the addition of the oligonucleotide to total volume of 8.7 ml per T75 flask. 4 hours following transfection cells were washed in OptiMEM and grown at 37° C. for 12-96 hours in complete growth medium with or without the addition of 2-100 nM Taxol (Sigma Aldrich). Cells were harvested for either mRNA extraction, Caspase 3/7 assay or fixed, stained with PI and analysed by FACS analysis.
# Cell culturing and transfections: As in example 13.
# Fixation and PI staining: Cells were washed in PBS, harvested and resuspended in 100 μl in ice cold PBS. 900 μl ice cold 70% […] and fixed cells were kept at −20 until use. […]
# SEQ ID NO. 2 transfected 15PC3 cells were exposed to different concentrations of Taxol and analysed by Propidium Iodide staining and subsequent FACS analysis (FIG. 7a-c). […]
# [4] = Survivin mRNA down-regulation relative to mock, normalised to GAPDH, standard deviation in brackets, at least three experiments
# [5] = 48 hours (Table 7, FIG. 5), read-out: Proliferation IC50 (48 hours)
substance,measurement,setting,value
"5′-Gs^MeCsAsGstsgsgsastsgsasasGs^MeCs^MeCsA-3′ (lG*l[5mC]*lA*lG*dT*dG*dG*dA*dT*dG*dA*dA*lG*l[5mC]*l[5mC]*lA) [SEQ ID NO. 23, reference compound]","Apoptosis At 5 nM, 24 hours",15PC3 cells [1]; 5 nM,2-fold
same,Max Apoptosis,15PC3 cells [1],5.5-fold
same,IC50,human Survivin RNA; [4],2.5 nM
same,IC75 [nM],human Survivin RNA; [4],6.2 (1.6) nM
5′-Gs^MeCsAs^MeCsasgststsgsasasas^MeCsAsTsc-3′ (lG*l[5mC]*lA*l[5mC]*dA*dG*dT*dT*dG*dA*dA*dA*l[5mC]*lA*lT*dC) [SEQ ID NO. 22],IC50,15PC3 cells [2]; [5],25 nM
same,"Apoptosis At 5 nM, 24 hours",15PC3 cells [1]; 5 nM,No activity
same,Max Apoptosis,15PC3 cells [1],2.5-fold
TsGsTsGscstsaststscstsgstsgsAsAsTsT (lT*lG*lT*lG*dC*dT*dA*dT*dT*dC*dT*dG*dT*dG*lA*lA*lT*lT) [SEQ ID NO. 21],IC50,15PC3 cells [2]; [5],25 nM
same,"Apoptosis At 5 nM, 24 hours",15PC3 cells [1]; 5 nM,No activity
same,Max Apoptosis,15PC3 cells [1],2.5-fold
same,Tm (° C.) complementary RNA,complementary RNA,62.7 °C
"^MeCsGs^MeCsAsgsaststsasgsasasAs^MeCs^MeCst (l[5mC]*lG*l[5mC]*lA*dG*dA*dT*dT*dA*dG*dA*dA*lA*l[5mC]*l[5mC]*dT) [SEQ ID NO. 24, negative control oligonucleotide, design 4-8-3-1]",Proliferation (relative number of viable cells),"15PC3 cells [2]; 0.2, 1, 5, 25 and 100 nM, 13-72 hours after transfection, 15PC3 cells",does not
same,IC50,"15PC3 cells [2]; 48 hours, transfected 15PC3 cells (Table 5), read-out: Inhibition of proliferation, MTS assay IC50 (48 hours)",86.9 nM
same,"Maximum Induction Fold-induction of apoptosis, Caspase 3/7 assay","15PC3 cells [1]; 100 nM, 48 hours, 15PC3 cells","3.1 x (100 nM, 48 hours)"
same,"Fold induction of apoptosis, Caspase 3/7 assay","15PC3 cells [1]; 24 hours, 5 nM, 15PC3 cells, relative to mock",1.5 x
same,Induction of early and late apoptosis (Annexin V-FITC/PI staining),HeLa cells,do not induce apoptosis
same,Effect on the cell cycle,15PC3 cells [3],no effect on the cell cycle
"^MeCsTscscscsasgscsgstsgscsgs^MeCs^MeCsa (l[5mC]*lT*dC*dC*dC*dA*dG*dC*dG*dT*dG*dC*dG*l[5mC]*l[5mC]*dA) [SEQ ID NO. 26, reference compound]",Survivin mRNA expression,"human Survivin RNA; 10 nM, 24 hours, single agent or combined with control oligonucleotides",does not have any effect on Survivin
